Tests used:
Assay in all cases: Barcoded pooled LNP biodistribution screen, fold above input (FAI)
Type in all cases: in vivo
Liver = conditions: Table 4 screening experiment; pooled LNP IV tail vein, mice, 4 hours post-dose
Procedure: (§1) Male and female mice aged approximately 8-12 weeks were used for studies described by the present Example. Each mouse was temporarily restrained and pooled LNP was administered IV via tail vein injection in up to five animals per experiment. Age-matched mice was also used to administer vehicle (1×TBS) via tail vein injection in up to three animals per experiment. Additional routes of administration can also be conducted including intracerebral ventricular (ICV), intracisterna manga (ICM), intrathecal (IT), intramuscular (IM), nebulization, intranasal (IN), subcutaneous (SC), intraarticular, and intradermal (ID). At 4 hours post-dose, tissues including liver, spleen, bone marrow, testes, gastrocnemius, quadricep, lung, heart, kidney, and pancreas may be collected for analysis.
(§2) Liver, kidney, lung, and muscle (e.g. skeletal and cardiac) tissues may be mechanically, and then enzymatically digested using a mixture of proteinases, then passed through a 70 μm filter to generate single cell suspensions. Spleen tissues were mechanically digested to generate single cell suspensions. Tissues were treated with ACK buffer to lyse red blood cells, and then stained with fluorescently-labeled antibodies for flow cytometry and fluorescence-activated cell sorting (FACS). Commercially available antibodies were used in the present example. Using a BD FACSMelody (Becton Dickinson), samples were acquired via flow cytometry to generate gates prior to sorting. In general, the gating structure was size→singlet cells→live cells→cells of interest. T cells were defined as CD45+CD3+, monocytes are defined as CD45+CD11b+, and B cells are defined as CD45+CD19+. Endothelial cells were defined as CD31+, monocytes and Kupffer cells as CD45+CD11b+ and hepatocytes and myocytes were defined as CD31−/CD45− in the liver and muscle, respectively. Tissues from vehicle-dosed mice were used to set the gates for sorting.
(§3) RNA from tissues were extracted using the Reliaprep RNA extraction kit, and libraries were prepared using the RNAseq kit, and sequenced on either a MiSeq or NextSeq500.
(§4) To screen for preferential LNP delivery to a target tissues, the relative abundance of each barcode in one or more target tissues was measured and compared to the relative abundance of each barcode to its corresponding relative input abundance to determine fold above input (FAI) for each barcode. If the FAI of a barcode in a target tissue is above a threshold or above the FAI of a different LNP in the same tissue, the LNP can be identified as preferentially delivering to the target tissue.
(§5) The FAI is the normalized relative abundance of a barcode in a selected sample as compared to its frequency in the input. The FAI of a barcode indicates how a LNP's abundance changes relative to the rest of the LNP pool. The FAI value of the barcode was calculated by normalizing the relative abundance in the barcode sequence counts in the isolated samples to its relative abundance in the administration input. […] The FAI then indicates the performance of an LNP relative to the input LNP composition.

Lung = conditions: pooled LNP IV tail vein, mice, 4 hours post-dose
Procedure: as §1, §2, §3, §4, §5

Spleen = conditions: pooled LNP IV tail vein, mice, 4 hours post-dose
Procedure: as §1, §2, §3, §4, §5

CCCCC/C=C\C/C=C\CCCCCCCCC(CCCCCCCC/C=C\C/C=C\CCCCC)OC(=O)CCCN(C)C [MC3, (6Z,9Z,28Z,31Z)-heptatriaconta-6,9,28,31-tetraen-19-yl 4-(dimethylamino) butanoate]
FAI (Liver) (Liver): 0.86 | FAI (Lung) (Lung; Table 4 screening experiment): 1.13 | FAI (Lung) (Lung; Table 5 screening experiment): 0.50 | FAI (Spleen) (Spleen; Table 4 screening experiment): 1.94 | FAI (Spleen) (Spleen; Table 5 screening experiment): 0.39
